Data reported in US20120329879A1, “BETA-ADRENERGIC RECEPTOR AGONISTS AND USES THEREOF” (THE UNIVERSITY OF TENNESSEE RESEARCH FOUNDATION, priority 2010, published 2012).
“And” between values parts separate entries of the source, which are not always exact repeats. Equal entries are not always repeated. “Also recorded” adds a separate entry of the source.

Experiments:
[1] = tested on: electrical activity of the retina of diabetic rats; assay: Electroretinogram (ERG) analyses in diabetic rats; assay type: in vivo, rat
Procedure: Each month of the experiment, electroretinogram (ERG) analyses were performed on rats from the three groups. Electroretinogram analyses were done to evaluate changes in electrical activity of the retina and as a measure of drug effectiveness. For the electroretinogram analyses, rats were dark adapted overnight. The following morning, the rats were anesthetized using an intraperitoneal injection of a ketamine (0.6 ml/kg body weight) and xylazine (0.375 ml/kg body weight) cocktail. The pupil of each eye was fully dilated using a 1% tropicamide solution (Alcon). To protect the eye and assist in maintaining a good electrical connection, a drop of methylcellulose solution was added to each eye (Celluvisc; Allergan, Irvine, Calif.). Body temperature was maintained at 37° C. with a water-based heating pad. The electroretinogram responses were recorded from both eyes simultaneously using platinum wire corneal electrodes, a forehead reference electrode, and ground electrode in the tail. The electroretinogram stimuli were delivered via the Diagnosys LLC system. All animals tested recovered from anesthesia after the electroretinogram recording sessions. No animals with gross cataract were used for electroretinogram analyses.
Electroretinogram responses were recorded in response to brief (4 ms) white LED and then from the Xenon arc lamp delivered at 2.1-second intervals for dim stimuli and 35 second frames for brighter stimuli. The range of stimulus intensities extended from −4.0 to 1.0 log cd*s/m2 for analysis of the b-wave amplitudes. Electroretinogram waveforms were recorded with a bandwidth of 0.3-500 Hz and sampled at 2 kHz by a digital acquisition system (Diagnosys) and were analyzed using MatLab (The MathWorks, Natick, Mass.). […]
For assessment of the oscillatory potentials, stimuli were administered at 3 log (cd*s/m2). Data analysis for the oscillatory potentials was obtained using MatLab software with a digital band-pass filter set for 60-300 Hz and the peak wavelets of the 4 wavelets were measured from trough to peak. […]

[2] = tested on: retinal capillaries of diabetic rats; assay: Quantitation of acellular (degenerate) capillaries in trypsin-digested retinal vasculature; assay type: in vivo, rat; conditions: 1 mM eye drops, 8 months of diabetes, hydrochloride
Procedure: For the acellular capillary counts, retinas from an eye of control, diabetic, and diabetic+2 were used. Eyes were enucleated and placed into 10% buffered formalin for 5 days. The retina was dissected in 3% crude trypsin solution (Difco Bacto Trypsin 250, Detroit, Mich.) containing 0.2 M sodium fluoride at 37 C for 2 hours (5). The neural retina was gently brushed away and the remaining retinal vascular tree was dried onto a glass slide. Once the isolated retinal vascular tree was dried onto the glass slide, the slide was stained with hematoxylin-periodic acid-Schiff. Degenerate (acellular) capillaries were counted in mid-retina in six to seven fields evenly spaced around the retina. Degenerate capillaries were identified as capillary-sized tubes having no nuclei anywhere along their length. Degenerate capillaries were counted only if their average diameter was at least 20% of that found in surrounding healthy capillaries (6-7).

TNFalpha = TNFalpha ELISA of retina of diabetic rats; assay type: in vivo, rat
Excerpt: The other eye from each animal was used for protein analyses for inflammatory markers and insulin receptor signaling. Western blotting was done as described (9). Antibodies used were total insulin receptor beta (1:500, Cellular Signaling, Danvers, Mass.), phosphorylated insulin receptor beta (Tyr 1150/1151, 1:500, Cellular Signaling, Danvers, Mass.), total Akt (1:500, Cellular Signaling, Danvers, Mass.), and phosphorylated Akt (Ser 473, 1:500, Cellular Signaling, Danvers, Mass.). For analyses of the data, mean densitometry values were obtained using the Kodak 2.0 software. The ratio of phosphorylated protein was compared to levels of total protein.
(§1) To determine the TNF concentration (Pierce, Rockford Ill.) and levels of cleaved caspase 3 (Cellular Signaling, Danvers, Mass.), ELISA analyses were done according to manufacturers instructions, except that equal protein was loaded into the cleaved caspase 3 ELISA so the optical density numbers can be used.

cleaved caspase 3 = assay: Cleaved caspase 3 ELISA of retinal lysates of diabetic rats; assay type: in vivo, rat; conditions: Compound 2 eye drops
Excerpt: as §1

[3] = tested on: Human retinal endothelial cells (HREC); assay: TNFalpha and cleaved caspase 3 ELISA in retinal endothelial cells cultured in high glucose; assay type: cell-based; conditions: 50 nM
Procedure: Human retinal endothelial cells (HREC) were purchased from Cell Systems (Kirkland, Wash.) and grown in either basal (5 mM glucose) or growth (25 mM glucose) media. Both media is supplemented with 10% FBS and antibiotics. The day prior to experiments, cells are serum-starved for 18-24 hours. Rat Müller cells (rMC-1) were grown in DMEM medium with 5 mM glucose or 25 mM glucose. Media was supplemented with 10% FBS and antibiotics. Cells were serum starved prior to all experiments for 18-24 hours.
Human retinal endothelial cells (HREC) and rat Muller cells (rMC-1) in both glucose conditions were treated with Compound 2 at doses of 10 nM, 50 nM, 100 nM, 1 μM, and 10 μM of Compound 2. Cells of each type were grown in medium containing L-glucose to control for changes in osmolarity. 10 μM isoproterenol was also used for each condition as a positive control. Müller cells were treated for 1 hour and 24 hours, while HREC were treated for 30 and 60 minutes.
Following treatment, cells were collected into lysis buffer containing protease and phosphatase inhibitors. ELISA analyses for TNFalpha, cleaved caspase 3, and PKA were done according to manufacturers instructions. Data is compared against non-treated cells and cells at the various doses. A Kruskal-Wallis test is done, with a Dunn's test for secondary analyses. […] The dose that decreases TNFalpha and caspase 3 levels also increases PKA activity.

[4] = Tissue distribution of Compound 2 in heart, lung and spleen after topical delivery; assay type: in vivo; conditions: rat, 24 hours after topical 10 mg/kg, single animals 1-5
[5] = tested on: retinal vasculature of hypoxic mice; assay: Oxygen-induced retinopathy model of proliferative diabetic retinopathy; assay type: in vivo; conditions: 1 mM eye drops once daily on days 13, 14, 15, sacrificed day 17
Procedure: A model of oxygen-induced retinopathy was used to determine the effects in vivo of Compound 2 on mice. Mice were placed into a chamber with 100% oxygen at day 7 of life. On day 12, they were removed from the chamber into normal air. The retina interprets this as hypoxia and starts angiogenesis. Mice were treated with 1 mM Compound 2 in eye drops once daily on days 13, 14, 15. Animals were sacrificed on day 17. FIGS. 19A-19 Retinal flat mounts were prepared.

## COc1cc(CCNC[C@H](O)c2ccc(O)c(O)c2)cc(OC)c1OC.Cl (single isomer, unassigned) [Compound 2, 4-[1-hydroxy-2-(1-ethylamino-3-,4-,5-trimethoxyphenyl)ethyl]benzene-1,2-diol hydrochloride]
[1]; 6 month diabetic rats receiving Compound 2 therapy for 2 months
  retinal function (ERG), delayed treatment: had improved retinal function
[1]; daily topical 1 mM from one week after STZ, ERG after 6 weeks
  B-wave amplitude: inhibited the loss of B-wave amplitude
[1]; diabetic rats, topical 1 mM daily from onset, over 8 months, hydrochloride
  ERG amplitudes (a-wave, b-wave, oscillatory potentials): inhibited the loss of amplitude of B-wave and oscillatory potentials; also recorded: can inhibit the loss of all three components of the ERG over the entire 8-month period
[2]
  numbers of degenerate capillaries: significantly reduced numbers of degenerate capillaries; also recorded: significantly reduce numbers of degenerate capillaries to levels similar to controls
TNFalpha; 1 mM eye drops, 8 months
  TNFalpha levels in retina, 8 months: levels similar to Ctrl rats
TNFalpha; eye drop therapy
  TNFα concentration throughout the treatment regimen: effective in reducing TNFα concentration throughout the treatment regimen
Cleaved caspase 3
  cleaved caspase 3 levels in retinal lysates: reduced following treatment
[3]; REC in 25 mM glucose
  reduction of TNFalpha levels versus not-treated controls: 23%
  reduction of caspase 3 levels versus not-treated controls: 54%
[3]; REC in high glucose, vs non-treated
  TNFalpha levels, in words: significantly reduced
[3]; REC in high glucose, vs non-treated, hydrochloride
  cleaved caspase 3 levels, in words: significantly decreased caspase 3 levels; also recorded: significantly reduced levels of cleaved caspase 3
[4]
  concentration in Heart: <400 ng/g
[4]; hydrochloride
  concentration in Lung: 463.43 ng/g and 2262.08 ng/g and 2862.22 ng/g and 2060.08 ng/g and 535.24 ng/g
  concentration in Spleen: 12134.03 ng/g and 8393.8 ng/g and 7061.2 ng/g and 4544.4 ng/g and 34331.0 ng/g
[4]; heart, topical, 10 mg/kg
  concentration at 24 h: < 400 ng/g
[5]
  development of retinal vasculature (retinal flat mounts): the retina is much more developed and appears normal
